Results published in US20260306639A1, “DEGRADER FOR DECOMPOSING CMET PROTEIN, AND PHARMACEUTICAL COMPOSITION COMPRISING SAME” (INNOCURE THERAPEUTICS, INC., priority 2022, published 2026).

tested on: c-MET; assay: c-MET protein degradation (Simple Western), MKN-45 cells; assay type: cell-based, human; conditions: MKN-45 gastric cancer cells, c-MET overexpressing; 24 hours
Description: In order to assess the resolution of the compound of the present invention for c-MET expressed in cells, cells were dispensed in a 12-well plate at a concentration of 2×10^5 cells/well, and then gastric cancer cell lines were treated with samples for 24 hours and lung cancer cell lines were treated for 48 hours. Cell lysates were collected using a scraper on ice, centrifuged at 4° C. 15,000 rpm for 30 min to obtain a protein-containing supernatant. Protein expression was then measured using the Simple Western Automated Western Blot System Abby instrument using 3 μg of protein for each sample. SDS and heat-induced denaturation proteins were separated by molecular weight, attached to capillary, reacted with anti-c-MET or anti-GAPDH antibodies, which are primary antibodies, and then reacted with HRP-conjugated secondary antibodies, and analyzed the protein expression signal with compass software. Protein expression was normalized based on the expression value of GAPDH, and protein development in each sample was measured as a percentage (%) based on 100% of samples treated with 0.1% DMSO carriers, and DC50 (concentration of a compound where 50% protein inhibition is achieved) was calculated from the change in protein expression amount due to compound treatment.

Row | Structure (SMILES) | DC50 [nM]
1 | Cc1nn(C2CCC(=O)NC2=O)c(=O)c2cc(N3CCN(CC4CCN(C(=O)CN5CCC(COc6cnc(-c7cccc(Cn8nc(-c9cccc(C#N)c9)ccc8=O)c7)nc6)CC5)CC4)CC3)ccc12 (stereo not shown) [ICT-0001195] | < 100
2 | Cc1nn(C2CCC(=O)NC2=O)c(=O)c2ccc(N3CCN(CC4CN(CC(=O)N5CCC(COc6cnc(-c7cccc(Cn8nc(-c9cccc(C#N)c9)ccc8=O)c7)nc6)CC5)C4)CC3)cc12 (stereo not shown) [ICT-0001253] | < 100
3 | N#Cc1cccc(-c2ccc(=O)n(Cc3cccc(-c4ncc(OCC5CCN(CC(=O)NCCCCCc6ccc7c(=O)n(C8CCC(=O)NC8=O)ncc7c6)CC5)cn4)c3)n2)c1 (stereo not shown) [ICT-0001206] | < 100
4 | Cc1nn(C2CCC(=O)NC2=O)c(=O)c2cc(N3CCC(C(=O)NCCCNC(=O)CN4CCC(COc5cnc(-c6cccc(Cn7nc(-c8cccc(C#N)c8)ccc7=O)c6)nc5)CC4)CC3)ccc12 (stereo not shown) [ICT-0001238] | > 1000
5 | Cc1nn(C2CCC(=O)NC2=O)c(=O)c2ccc(N3CCN(C(=O)CN4CCC(COc5cnc(-c6cccc(Cn7nc(-c8cccc(C#N)c8)ccc7=O)c6)nc5)CC4)CC3)cc12 (stereo not shown) [ICT-0001177, 3-(1-{[3-(5-{[1-(2-{4-[2-(2,6-dioxopiperidin-3-yl)-4-methyl-1-oxo-1,2-dihydropthalazine-6-yl]piperazine-1-yl}-2-oxoethyl)piperidine-4-yl]methoxy}pyrimidine-2-yl)phenyl]methyl}-6-oxo-1,6-dihydropyridazine-3-yl)benzonitrile] | < 100
6 | Cc1nn(C2CCC(=O)NC2=O)c(=O)c2ccc(N3CCC(CN4CCN(CC(=O)N5CCC(COc6cnc(-c7cccc(Cn8nc(-c9cccc(C#N)c9)ccc8=O)c7)nc6)CC5)CC4)CC3)cc12 (stereo not shown) [ICT-0001213] | < 100
7 | N#Cc1cccc(-c2ccc(=O)n(Cc3cccc(-c4ncc(OCC5CCN(C(=O)CCCCCCNc6ccc7c(=O)n(C8CCC(=O)NC8=O)ncc7c6)CC5)cn4)c3)n2)c1 (stereo not shown) [ICT-0000985, 3-(1-{[3-(5-{[1-(7-{[2-(2,6-dioxopiperidin-3-yl)-1-oxo-1,2-dihydrophthalazine-6-yl]amino}heptanoyl)piperidine-4-il]methoxy}pyrimidine-2-yl)phenyl]methyl}-6-oxo-1,6-dihydropyridazine-3-yl)benzonitrile] | < 100
8 | Cc1nn(C2CCC(=O)NC2=O)c(=O)c2cc(N3CCN(CCCCC(=O)N4CCC(COc5cnc(-c6cccc(Cn7nc(-c8cccc(C#N)c8)ccc7=O)c6)nc5)CC4)CC3)ccc12 (stereo not shown) [ICT-0001217] | < 100
9 | Cn1cc(-c2cnc3c(nnn3C[C@@H]3CN(c4ncc(-c5ccc(CN6CCN(C(=O)CCCCCCNc7ccc8c(=O)n(C9CCC(=O)NC9=O)ncc8c7)CC6)cc5)cn4)CCO3)n2)cn1 (stereo partly drawn) [ICT-0000925, 3-(6-((7-(4-(4-(2-((S)-2-((5-(1-methyl-1H-pyrazole-4-yl)-1H-[1,2,3]triazolo[4,5-b]pyrazine-1-yl)methyl)morpholino)pyrimidine-5-yl)benzyl)piperazine-1-yl)7-oxoheptyl)amino)1-oxopthalazine-2(1H)-yl)piperidine-2,6-dione] | < 100
10 | Cc1nn(C2CCC(=O)NC2=O)c(=O)c2cc(N3CCN(c4ccc(NCC(=O)N5CCC(COc6cnc(-c7cccc(Cn8nc(-c9cccc(C#N)c9)ccc8=O)c7)nc6)CC5)cc4)CC3)ccc12 (stereo not shown) [ICT-0001262, 3-(1-(3-(5-((1-((4-(4-(3-(2,6-dioxopiperidin-3-yl)-1-methyl-4-oxo-3,4-dihydropthalazine-6-yl)piperazine-1-yl)phenyl)glycy)piperidine-4-il)methoxy)pyrimidine-2-yl)benzyl)6-oxo-1,6-dihydropyridazine-3-yl)benzonitrile] | < 100
11 | Cc1nn(C2CCC(=O)NC2=O)c(=O)c2ccc(N3CCN(C(=O)CCN4CCC(COc5cnc(-c6cccc(Cn7nc(-c8cccc(C#N)c8)ccc7=O)c6)nc5)CC4)CC3)cc12 (stereo not shown) [ICT-0001224] | < 100
12 | Cc1nn(C2CCC(=O)NC2=O)c(=O)c2ccc(N3CCN(c4ccc(NCC(=O)N5CCC(COc6cnc(-c7cccc(Cn8nc(-c9cccc(C#N)c9)ccc8=O)c7)nc6)CC5)cc4)CC3)cc12 (stereo not shown) [ICT-0001240, 3-(1-(3-(5-((1-((4-(4-(2-(2,6-dioxopiperidin-3-yl)-4-methyl-1-oxo-1,2-dihydropthalazine-6-yl)piperazine-1-yl)phenyl)glycyl)piperidine-4-il)methoxy)pyrimidine-2-yl)benzyl)6-oxo-1,6-dihydropyridazine-3-yl)benzonitrile] | 100 to 1000
13 | Cc1nn(C2CCC(=O)NC2=O)c(=O)c2cc(F)c(N3CCN(CC4CCN(C(=O)CN5CCC(COc6cnc(-c7cccc(Cn8nc(-c9cccc(C#N)c9)ccc8=O)c7)nc6)CC5)CC4)CC3)cc12 (stereo not shown) [ICT-0001204] | < 100
14 | Cn1cc(-c2cnc3c(nnn3C[C@@H]3CN(c4ncc(-c5ccc(CN6CCN(C(=O)CCCNc7ccc8c(=O)n(C9CCC(=O)NC9=O)ncc8c7)CC6)cc5)cn4)CCO3)n2)cn1 (stereo partly drawn) [ICT-0000922, 3-{6-[(4-{4-[(4-{2-[(2S)-2-{[5-(1-methyl-1H-pyrazole-4-yl)-1H-[1,2,3]triazolo[4,5-b]pyrazine-1-yl]methyl}morpholine-4-il]pyrimidine-5-yl}phenyl)methyl]piperazine-1-yl}-4-oxobutyl)amino]-1-oxo-1,2-dihydroptalazine-2-yl}piperidine-2,6-dione] | < 100
15 | Cn1cc(-c2cnc3c(nnn3CC3CN(c4ncc(-c5ccc(CN6CCN(C(=O)CCCNc7cccc8cnn(C9CCC(=O)NC9=O)c(=O)c78)CC6)cc5)cn4)CCO3)n2)cn1 [ICT-0000969, 3-(8-((4-(4-(4-(4-(2-((S)-2-((5-(1-methyl-1H-pyrazole-4-yl)-1H-[1,2,3]triazolo[4,5-b]pyrazine-1-yl)methyl)morpholino)pyrimidine-5-yl)benzyl)piperazine-1-yl)4-oxobutyl)amino)1-oxopthalazine-2(1H)-yl)piperidine-2,6-dione] | < 100
16 | Cc1nn(C2CCC(=O)NC2=O)c(=O)c2ccc(N3CCN(C[C@H]4CCN(CC(=O)N5CCC(COc6cnc(-c7cccc(Cn8nc(-c9cccc(C#N)c9)ccc8=O)c7)nc6)CC5)CO4)CC3)cc12 (stereo partly shown) [ICT-0001254] | 100 to 1000
17 | Cc1nn(C2CCC(=O)NC2=O)c(=O)c2ccc(N3CCN(CC4CN(C(=O)CN5CCC(COc6cnc(-c7cccc(Cn8nc(-c9cccc(C#N)c9)ccc8=O)c7)nc6)CC5)C4)CC3)cc12 (stereo not shown) [ICT-0001235] | < 100
18 | N#Cc1cccc(-c2ccc(=O)n(Cc3cccc(-c4ncc(OCC5CCN(C(=O)CCOCCOCCOCCOCCNc6cccc7cnn(C8CCC(=O)NC8=O)c(=O)c67)CC5)cn4)c3)n2)c1 (stereo not shown) [ICT-0000907] | 100 to 1000
19 | Cc1nn(C2CCC(=O)NC2=O)c(=O)c2ccc(N3CCN(CCCC(=O)N4CCC(COc5cnc(-c6cccc(Cn7nc(-c8cccc(C#N)c8)ccc7=O)c6)nc5)CC4)CC3)cc12 (stereo not shown) [ICT-0001175, 3-(1-(3-(5-((1-(4-(4-(2-(2,6-dioxopiperidine-3-yl)-4-methyl-1-oxo-1,2-dihydropthalazine-6-yl)piperazine-1-yl)butanoyl)piperidine-4-il)methoxy)pyrimidine-2-yl)benzyl)6-oxo-1,6-dihydropyridazine-3-yl)benzonitrile] | < 100
20 | N#Cc1cccc(-c2ccc(=O)n(Cc3cccc(-c4ncc(OCC5CCN(C(=O)CCN6CCN(c7ccc8c(=O)n(C9CCC(=O)NC9=O)ncc8c7)CC6)CC5)cn4)c3)n2)c1 (stereo not shown) [ICT-0001199, 3-(1-{[3-(5-{[1-(3-{4-[2-(2,6-dioxopiperidin-3-yl)-1-oxo-1,2-dihydropthalazine-6-yl]piperazine-1-yl}propanoyl)piperidine-4-il]methoxy}pyrimidin-2-yl)phenyl]methyl}-6-oxo-1,6-dihydropyridazine-3-yl)benzonitrile] | < 100
21 | N#Cc1cccc(-c2ccc(=O)n(Cc3cccc(-c4ncc(OCC5CCN(C(=O)COCCOCCNc6ccc7c(=O)n(C8CCC(=O)NC8=O)ncc7c6)CC5)cn4)c3)n2)c1 (stereo not shown) [ICT-0000986, 3-{1-[(3-{5-[(1-{2-[2-(2-{[2-(2,6-dioxopiperidin-3-yl)-1-oxo-1,2-dihydropthalazine-6-yl]amino}ethoxy)ethoxy]acetyl}piperidine-4-il)methoxy]pyrimidine-2-yl}phenyl)methyl]-6-oxo-1,6-dihydropyridazine-3-yl}benzonitrile] | < 100
22 | Cc1nn(C2CCC(=O)NC2=O)c(=O)c2cc(N3CCC(CN4CCN(CC(=O)N5CCC(COc6cnc(-c7cccc(Cn8nc(-c9cccc(C#N)c9)ccc8=O)c7)nc6)CC5)CC4)CC3)ccc12 (stereo not shown) [ICT-0001239] | < 100
23 | Cc1nn(C2CCC(=O)NC2=O)c(=O)c2ccc(N3CCN(C4CCN(CC(=O)N5CCC(COc6cnc(-c7cccc(Cn8nc(-c9cccc(C#N)c9)ccc8=O)c7)nc6)CC5)CC4)CC3)cc12 (stereo not shown) [ICT-0001255] | < 100
24 | Cc1nn(C2CCC(=O)NC2=O)c(=O)c2cc(N3CCC(CN4CCN(C(=O)CN5CCC(COc6cnc(-c7cccc(Cn8nc(-c9cccc(C#N)c9)ccc8=O)c7)nc6)CC5)CC4)CC3)ccc12 (stereo not shown) [ICT-0001234] | > 1000
25 | Cc1nn(C2CCC(=O)NC2=O)c(=O)c2ccc(N3CCN(C[C@@H]4CN(C(=O)CN5CCC(COc6cnc(-c7cccc(Cn8nc(-c9cccc(C#N)c9)ccc8=O)c7)nc6)CC5)CCO4)CC3)cc12 (stereo partly shown) [ICT-0001258] | < 100
26 | Cc1nn(C2CCC(=O)NC2=O)c(=O)c2ccc(NCCCC(=O)N3CCC(COc4cnc(-c5cccc(Cn6nc(-c7cccc(C#N)c7)ccc6=O)c5)nc4)CC3)cc12 (stereo not shown) [ICT-0000989] | 100 to 1000
27 | N#Cc1cccc(-c2ccc(=O)n(Cc3cccc(-c4ncc(OCC5CCN(CC(=O)NCCCC#Cc6ccc7c(=O)n(C8CCC(=O)NC8=O)ncc7c6)CC5)cn4)c3)n2)c1 (stereo not shown) [ICT-0001205] | < 100
28 | N#Cc1cccc(-c2ccc(=O)n(Cc3cccc(-c4ncc(OCC5CCN(CCCCC(=O)N6CCN(c7ccc8c(=O)n(C9CCC(=O)NC9=O)ncc8c7)CC6)CC5)cn4)c3)n2)c1 (stereo not shown) [ICT-0001252] | < 100
